Experimental data taken from patent US20180079912A1, “ANTIFOULING MATERIALS” (priority 2013, published 2018).
Square brackets hold non-standard residues; d marks the D form. Peptide text beside a SMILES is read from it. Phe(4-F) = N[C@@H](Cc1ccc(F)cc1)C(=O)O; Dopa = N[C@@H](Cc1ccc(O)c(O)c1)C(=O)O

Columns and labels:
[1] = AFM topography of mica coated with the peptides; type: physicochemical; conditions: coated mica substrate, 0.5 mg/mL in methanol overnight
Experimental: Freshly cleaved mica surfaces were dipped overnight in different peptide solution at a concentration of 0.5 mg/mL in methanol. Then, the surfaces were washed with fresh methanol and dried under N2.

[2] = QCM-D real-time adhesion of peptides to Ti sensor (Sauerbrey model); conditions: QCM-D on Ti sensor, 0.5 mg/mL in MeOH, 40 minutes
Experimental: QCM-D (Q-sense, Biolin Scientific) was used for the study of peptide adhesion onto Ti surface. Measurements were performed in a flow module E1 system. Ti sensors with a fundamental resonant frequency of 5 MHz were also purchased from Q-sense and used as supplied. Prior to each experiment Ti sensors were cleaned with Oxygen/Plasma (Atto, Diener Electronic), followed by rinsing with 2% SDS and TDW and finally dried under N2. All QCM-D experiments were performed under flow-through conditions using a digital peristaltic pump ([…] Peristaltic Pump, IDEX) operating in pushing mode. The studied solutions were injected to the sensor crystal chamber at a rate of 0.1 mL/min. Organic solvent compatible tube and O-ring were used for the flow system. Peptides were dissolved in MeOH to a concentration of 0.5 mg/mL. The data were fitted with Sauerbrey model. According to this model the mass of adhering layer is calculated as […]

[3] = Layer thickness on Ti evaluated by XPS; type: physicochemical; conditions: Ti substrates, prolonged incubation
Experimental: The X-ray Photoelectron Spectroscopy (XPS) measurements were performed using a Kratos AXIS Ultra X-ray photoelectron spectrometer (Kratos Analytical Ltd., Manchester, UK). Spectra were acquired using the A1-Kα monochromatic X-ray source (1,486.7 eV). Sample take-off angle was 90° (i.e. normal to the analyzer). The vacuum pressure in the analyzing chamber maintained to 2·10^-9 Torr. […] Data analyses were done using the Kratos Vision data reducing processing software (Kratos Analytical Ltd.) and […] Software Ltd.). Using the XPS measurements, it is possible to calculate the thickness of the assembled layers. We have done so using the standard attenuation relations of the photoelectrons emerging from different sample depths. The thickness calculation is based on the Briggs et al. method and others. For the Au substrate, the overlay thickness d (nm) expressed as: […] Calculated, using S. Tougard […] software (http://www.quases.com). Inelastic electron mean free path calculated from the Tanuma, Powell and Penn algorithm [Penn, 1994].

[4] = Coating thickness by ellipsometry (Cauchy model); type: physicochemical; conditions: Cauchy film model
Experimental: The thickness of the peptide-based coating was measured using α-SE spectroscopic ellipsometer (J. A. Woollam, Lincoln, Nebr., USA). […] The thickness of the layers and refractive indices were fitted according to the Cauchy model. The coefficients of the Cauchy equation were initially fixed for organic layers (An=1.45, Bn=0.01 and Cn=0), and an angle offset was permitted. Then, the parameters were allowed to be fitted to determine more accurate values.

[5] = Dynamic water contact angles, tilting-plate method; type: physicochemical; conditions: gold substrate after coating
Experimental: (§1) The wetting properties were further investigated by the tilting-plate method that measured the dynamic contact angles, because it was essential in the confirmation of self-cleaning properties to investigate the dynamic water contact angles and surface free energies. The advancing (yadv) and receding (yrec) water contact angles of f-DOPA-coated substrates were measured, and the contact angle hysteresis (i.e., (yadv-yrec)) of each substrate was calculated. […] A water droplet on the substrate easily rolled off at a tilt angle of 5.31, which is clear evidence of self-cleaning properties. […] In addition, the surface free energy (gS) was calculated based on the Owens-Wendt geometric mean equation that divides the surface free energy into the dispersive (gDS) and polar (gPS) ones.

[6] = Surface free energy, Owens-Wendt geometric mean equation; type: physicochemical; conditions: f-DOPA-coated gold surface; water and diiodomethane
Experimental: as §1
The surface free energy (gS; gS=gDS+gPS) of each surface was determined by measuring the contact angles with water and diiodomethane (CH2I2). The surface free energy of the f-DOPA-coated gold surface was calculated to be 0.279 mJ m^−2, and the other substrates have the surface free energies between 0.2 and 0.9 mJ m^−2. These values are extremely low, probably because of both the structural roughness and the incorporated perfluoro groups. For comparison, the surface free energy of a smooth surface modified with CF3 groups in hexagonal close packing was reported to be 6.7 mJ m^−2. […]

[7] = XPS, SEM and AFM of f-DOPA films; type: physicochemical
Experimental: After 12 h, the substrate was washed with acetonitrile, and the coating process was repeated with a fresh f-DOPA solution.

[8] = Contact angle measurements of peptide-coated surfaces; type: physicochemical; conditions: titanium substrate coated with peptide; bare 43.2°; 0.5 mg/mL in methanol
Experimental: The clean surfaces were dipped in a peptide solution (0.5 mg/mL in methanol) and left for overnight at RT. Then, they were rinsed extensively with methanol and dried under nitrogen. Contact angle measurements were carried out using a Theta Lite optical tensiometer (Attension, Finland). Each experimental measurement consisted of three repeats, and the reported angles were averaged. […] We chose this concentration of peptide since it formed a substantial coating that gave a good signal in various characterization methods. After incubation, we thoroughly washed the substrate with methanol and dried it under nitrogen. Due to the hydrophobic moieties of the peptides, water could not be used as a solvent system despite its high polarity. We used methanol as the solvent since it dissolved the peptide completely, and at the same time allowed it to adhere the substrate. Since methanol is a toxic solvent, we also examined other solvents with different polarities.

Row | Molecule | height of spherical-like aggregates (AFM) [1] | Density [2] | Mass/Area [2] | Thickness [2] | average thickness of the peptide layer evaluated by XPS [3] | thickness of the coating by ellipsometry [4] | contact angle hysteresis [5] | tilt angle at which a water droplet rolled off [5] | surface free energy [6] | film thickness ([7]; f-DOPA coating on gold, from disappearance of Au XPS peaks) | root-mean-square roughness (AFM) ([7]; f-DOPA film) | contact angle [8]
1 | COC(=O)[C@H](Cc1ccc(F)cc1)NC(=O)[C@@H](N)Cc1ccc(O)c(O)c1 [Peptide 6, NH2-L-DOPA-L-(4F) Phe-COOMe] (H-[Dopa]-[Phe(4-F)]-OMe) | 1.02-3.65 nm | 805 Kg/m^3 | 13 ± 2 ng/cm^2 | 1.7 ± Å | 3.82±0.04 nm | 3.66±0.04 nm |  |  |  |  |  | 
2 | NC(Cc1ccc(O)c(O)c1)C(=O)OCCC(F)(F)C(F)(F)C(F)(F)C(F)(F)C(F)(F)C(F)(F)C(F)(F)C(F)(F)F (centres unmarked) [f-DOPA] |  |  |  |  |  |  | 9.91 | 5.31 | 0.279 mJ m^−2 | ≥ 10 nm | 533.92 nm | 
3 | NH2-DOPA-L-(F5)Phe(2)-L-(F5)Phe(3)-COOMe [Peptide 5] | 1.00-5.00 nm | 717 Kg/m^3 | 27 ± 3 ng/cm^2 | 3.4 ± Å | 4.2±0.1 nm | 5.2±0.1 nm |  |  |  |  |  | 
4 | NH2-L-DOPA-D-(4F)Phe(2)-D-(4F)Phe(3)-COOMe [Peptide 4] | 0.32-0.65 nm | 769 Kg/m^3 | 45 ± 2 ng/cm^2 | 5.6 ± 0.3 Å | 4.41±0.03 nm |  |  |  |  |  |  | 
5 | NH2-L-DOPA-D-(4F)Phe(2)-L-(4F)Phe(3)-COOMe [Peptide 3] | 0.20-2.30 nm | 760 Kg/m^3 | 43 ± 4 ng/cm^2 | 5.4 ± 0.5 Å | 3.9±0.1 nm |  |  |  |  |  |  | 
6 | NH2-L-DOPA-L(4F)-Phe(2)-L(4F)-Phe(3)-COOMe [Peptide 1] | 0.25-0.50 nm | 767 ± 4 Kg/m^3 | 72.1 ± 0.4 ng/cm^2 | 9.11 ± 0.05 Å | 3.9±0.1 nm |  |  |  |  |  |  | 68.1 °
7 | NH2-L-DOPA-L-(4F)Phe(2)-D-(4F)Phe(3)-COOMe [Peptide 2] | 0.20-0.48 nm | 824 Kg/m^3 | 57 ± 3 ng/cm^2 | 7.3 ± 0.3 Å | 4.3±0.1 nm |  |  |  |  |  |  | 
